Legend:
FGFR3 = FGFR3 (Homo sapiens, UniProt P22607); assay: SelectScreen kinase profiling, ZLYTE; format: biochemical; details: FGFR3, 10 µM
MAPKAPK5 (PRAK) = MAPKAPK5 (PRAK) (Homo sapiens, UniProt Q8IW41); assay: SelectScreen kinase profiling, ZLYTE; format: biochemical
LIMK2 = LIMK2 (Homo sapiens, UniProt P53671); assay: SelectScreen kinase profiling, LanthaScreen binding; details: LIMK2, 10 µM
DDR1 = DDR1 (Homo sapiens, UniProt Q08345); assay: as above; details: DDR1, 10 µM
RPS6KB2 (p70S6Kb) = RPS6KB2 (p70S6Kb) (Homo sapiens, UniProt Q9UBS0); assay: SelectScreen kinase profiling, ZLYTE; format: biochemical
Sequence of RPS6KB2 (p70S6Kb) (Q9UBS0 whole entry): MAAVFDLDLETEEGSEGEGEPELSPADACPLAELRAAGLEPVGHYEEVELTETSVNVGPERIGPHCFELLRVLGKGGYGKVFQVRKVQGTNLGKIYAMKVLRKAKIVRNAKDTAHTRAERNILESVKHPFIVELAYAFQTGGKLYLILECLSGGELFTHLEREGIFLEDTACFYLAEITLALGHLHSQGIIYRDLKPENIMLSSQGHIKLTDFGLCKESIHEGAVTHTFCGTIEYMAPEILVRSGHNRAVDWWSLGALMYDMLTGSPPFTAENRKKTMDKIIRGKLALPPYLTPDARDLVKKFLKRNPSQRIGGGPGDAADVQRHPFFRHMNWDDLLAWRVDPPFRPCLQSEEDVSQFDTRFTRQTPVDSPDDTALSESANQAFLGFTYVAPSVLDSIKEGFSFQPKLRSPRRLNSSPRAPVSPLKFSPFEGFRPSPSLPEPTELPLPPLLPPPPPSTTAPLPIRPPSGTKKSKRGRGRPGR

PIK3C2B (PI3K-C2 beta) = PIK3C2B (PI3K-C2 beta) (Homo sapiens, UniProt O00750); assay: SelectScreen kinase profiling, Adapta; format: biochemical
RIPK2 = RIPK2 (Homo sapiens, UniProt O43353); assay: SelectScreen kinase profiling, LanthaScreen binding; details: RIPK2, 10 µM
PRKCB2 (PKC beta II) = PRKCB2 (PKC beta II) (Homo sapiens, UniProt P05771); assay: SelectScreen kinase profiling, ZLYTE; format: biochemical
RPS6KA5 (MSK1) = RPS6KA5 (MSK1) (Homo sapiens, UniProt O75582); assay: SelectScreen kinase profiling, ZLYTE; format: biochemical
NEK9 = NEK9 (Homo sapiens, UniProt Q8TD19); assay: SelectScreen kinase profiling, ZLYTE; format: biochemical; details: NEK9, 10 µM
PAK4 = PAK4 (Homo sapiens, UniProt O96013); assay: SelectScreen kinase profiling, ZLYTE; format: biochemical; details: PAK4, 10 µM
CDK11/cyclin C = CDK11/cyclin C (Homo sapiens, UniProt Q9BWU1); assay: SelectScreen kinase profiling, LanthaScreen binding
NTRK2 (TRKB) = NTRK2 (TRKB) (Homo sapiens, UniProt Q16620); assay: SelectScreen kinase profiling, ZLYTE; format: biochemical
Sequence of NTRK2 (TRKB) (Q16620 32-822): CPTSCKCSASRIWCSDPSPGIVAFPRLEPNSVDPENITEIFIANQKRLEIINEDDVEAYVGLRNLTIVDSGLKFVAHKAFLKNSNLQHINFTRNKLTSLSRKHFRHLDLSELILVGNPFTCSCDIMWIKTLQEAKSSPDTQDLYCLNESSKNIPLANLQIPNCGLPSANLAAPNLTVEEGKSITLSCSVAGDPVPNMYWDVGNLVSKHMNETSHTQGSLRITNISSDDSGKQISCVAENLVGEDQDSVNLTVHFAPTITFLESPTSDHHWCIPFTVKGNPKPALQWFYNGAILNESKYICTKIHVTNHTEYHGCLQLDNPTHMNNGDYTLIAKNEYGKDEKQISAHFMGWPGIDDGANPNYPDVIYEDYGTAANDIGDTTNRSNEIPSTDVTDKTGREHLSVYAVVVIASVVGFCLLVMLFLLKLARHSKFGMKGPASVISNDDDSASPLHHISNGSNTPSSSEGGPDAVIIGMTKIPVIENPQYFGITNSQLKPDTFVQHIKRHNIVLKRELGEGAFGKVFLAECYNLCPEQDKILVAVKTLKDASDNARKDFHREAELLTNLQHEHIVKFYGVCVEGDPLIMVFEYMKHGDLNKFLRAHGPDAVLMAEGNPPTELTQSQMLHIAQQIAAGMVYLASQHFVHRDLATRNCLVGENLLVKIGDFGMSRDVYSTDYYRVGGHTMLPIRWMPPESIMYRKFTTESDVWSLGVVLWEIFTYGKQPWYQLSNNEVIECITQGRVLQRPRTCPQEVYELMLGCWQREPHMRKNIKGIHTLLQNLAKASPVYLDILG

MST4 = MST4 (Homo sapiens, UniProt Q9P289); assay: SelectScreen kinase profiling, ZLYTE; format: biochemical; details: MST4, 10 µM
CAMK2B (CaMKII beta) = CAMK2B (CaMKII beta) (Homo sapiens, UniProt Q13554); assay: SelectScreen kinase profiling, ZLYTE; format: biochemical
DAPK2 = DAPK2 (Homo sapiens, UniProt Q9UIK4); assay: SelectScreen kinase profiling, LanthaScreen binding; details: DAPK2, 10 µM
Sequence of DAPK2 (Q9UIK4 whole entry): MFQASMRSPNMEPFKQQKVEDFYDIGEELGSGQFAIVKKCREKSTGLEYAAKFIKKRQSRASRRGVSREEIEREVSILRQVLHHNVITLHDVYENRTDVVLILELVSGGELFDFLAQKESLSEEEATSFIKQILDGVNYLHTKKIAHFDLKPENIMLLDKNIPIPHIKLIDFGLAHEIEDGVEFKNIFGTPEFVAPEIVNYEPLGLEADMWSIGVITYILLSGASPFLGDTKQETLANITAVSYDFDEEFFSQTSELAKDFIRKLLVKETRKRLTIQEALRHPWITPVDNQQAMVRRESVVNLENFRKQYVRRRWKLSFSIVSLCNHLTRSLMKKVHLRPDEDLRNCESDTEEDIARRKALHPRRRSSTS

KIT T670E = KIT T670E (Homo sapiens, UniProt P10721, T670E); assay: as above
KIT = KIT (Homo sapiens, UniProt P10721); assay: SelectScreen kinase profiling, ZLYTE; format: biochemical
FYN = FYN (Homo sapiens, UniProt P06241); assay: SelectScreen kinase profiling, ZLYTE; format: biochemical
RPS6KA1 (RSK1) = RPS6KA1 (RSK1) (Homo sapiens, UniProt Q15418); assay: SelectScreen kinase profiling, ZLYTE; format: biochemical
PI4KB (PI4K beta) = PI4KB (PI4K beta) (Homo sapiens, UniProt Q9UBF8); assay: SelectScreen kinase profiling, Adapta; format: biochemical
SIK3 = SIK3 (Homo sapiens, UniProt Q9Y2K2); assay: SelectScreen kinase profiling, LanthaScreen binding; details: SIK3, 10 µM
MYO3A (MYO3 alpha) = MYO3A (MYO3 alpha) (Homo sapiens, UniProt Q8NEV4); assay: as above
CLK3 = CLK3 (Homo sapiens, UniProt P49761); assay: SelectScreen kinase profiling, ZLYTE; format: biochemical; details: CLK3, 10 µM
ALK T1151_L1152insT = ALK T1151_L1152insT (Homo sapiens, UniProt Q9UM73, INS1151T); assay: SelectScreen kinase profiling, LanthaScreen binding
ITK = ITK (Homo sapiens, UniProt Q08881); assay: SelectScreen kinase profiling, ZLYTE; format: biochemical
PHKG2 = PHKG2 (Homo sapiens, UniProt P15735); assay: SelectScreen kinase profiling, ZLYTE; format: biochemical; details: PHKG2, 10 µM
GRK7 = GRK7 (Homo sapiens, UniProt Q8WTQ7); assay: SelectScreen kinase profiling, ZLYTE; format: biochemical; details: GRK7, 10 µM
ALK C1156Y = ALK C1156Y (Homo sapiens, UniProt Q9UM73, C1156Y); assay: SelectScreen kinase profiling, LanthaScreen binding
LRRK2 G2019S FL = LRRK2 G2019S FL (Homo sapiens, UniProt Q5S007, G2019S); assay: SelectScreen kinase profiling, Adapta; format: biochemical
LATS1 = LATS1 (Homo sapiens, UniProt O95835); assay: SelectScreen kinase profiling, LanthaScreen binding; details: LATS1, 10 µM
PIK3C2G (PI3K-C2 gamma) = PIK3C2G (PI3K-C2 gamma) (Homo sapiens, UniProt O75747); assay: SelectScreen kinase profiling, Adapta; format: biochemical
CAMKK2 (CaMKK beta) = CAMKK2 (CaMKK beta) (Homo sapiens, UniProt Q96RR4); assay: SelectScreen kinase profiling, LanthaScreen binding
PRKACB (PRKAC beta) = PRKACB (PRKAC beta) (Homo sapiens, UniProt P22694); assay: as above
MAP3K9 (MLK1) = MAP3K9 (MLK1) (Homo sapiens, UniProt P80192); assay: SelectScreen kinase profiling, ZLYTE; format: biochemical
PLK3 = PLK3 (Homo sapiens, UniProt Q9H4B4); assay: SelectScreen kinase profiling, ZLYTE; format: biochemical; details: PLK3, 10 µM
Sequence of PLK3 (Q9H4B4 whole entry): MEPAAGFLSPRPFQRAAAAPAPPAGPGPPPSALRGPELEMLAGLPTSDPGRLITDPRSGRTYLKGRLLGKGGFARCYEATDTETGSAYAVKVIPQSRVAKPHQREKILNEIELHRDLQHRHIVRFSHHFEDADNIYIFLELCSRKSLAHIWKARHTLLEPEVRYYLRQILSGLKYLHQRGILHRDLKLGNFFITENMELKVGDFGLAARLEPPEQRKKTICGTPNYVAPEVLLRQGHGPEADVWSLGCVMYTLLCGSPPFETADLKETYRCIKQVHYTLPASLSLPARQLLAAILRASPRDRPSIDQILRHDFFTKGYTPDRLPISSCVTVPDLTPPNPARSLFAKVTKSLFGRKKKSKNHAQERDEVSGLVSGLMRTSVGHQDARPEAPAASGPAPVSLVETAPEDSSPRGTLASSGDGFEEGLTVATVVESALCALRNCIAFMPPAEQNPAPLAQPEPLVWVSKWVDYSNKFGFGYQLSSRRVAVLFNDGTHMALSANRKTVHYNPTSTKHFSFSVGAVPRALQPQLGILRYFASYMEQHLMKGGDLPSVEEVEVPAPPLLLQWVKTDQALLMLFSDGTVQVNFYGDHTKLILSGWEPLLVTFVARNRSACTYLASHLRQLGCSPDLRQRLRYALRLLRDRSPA

DAPK1 = DAPK1 (Homo sapiens, UniProt P53355); assay: SelectScreen kinase profiling, Adapta; format: biochemical; details: DAPK1, 10 µM
AMPK A1/B1/G1 = AMPK A1/B1/G1 (Homo sapiens, UniProt Q13131); assay: SelectScreen kinase profiling, ZLYTE; format: biochemical; details: AMPK A1/B1/G1, 10 µM
Sequence of AMPK A1/B1/G1 (Q13131 whole entry): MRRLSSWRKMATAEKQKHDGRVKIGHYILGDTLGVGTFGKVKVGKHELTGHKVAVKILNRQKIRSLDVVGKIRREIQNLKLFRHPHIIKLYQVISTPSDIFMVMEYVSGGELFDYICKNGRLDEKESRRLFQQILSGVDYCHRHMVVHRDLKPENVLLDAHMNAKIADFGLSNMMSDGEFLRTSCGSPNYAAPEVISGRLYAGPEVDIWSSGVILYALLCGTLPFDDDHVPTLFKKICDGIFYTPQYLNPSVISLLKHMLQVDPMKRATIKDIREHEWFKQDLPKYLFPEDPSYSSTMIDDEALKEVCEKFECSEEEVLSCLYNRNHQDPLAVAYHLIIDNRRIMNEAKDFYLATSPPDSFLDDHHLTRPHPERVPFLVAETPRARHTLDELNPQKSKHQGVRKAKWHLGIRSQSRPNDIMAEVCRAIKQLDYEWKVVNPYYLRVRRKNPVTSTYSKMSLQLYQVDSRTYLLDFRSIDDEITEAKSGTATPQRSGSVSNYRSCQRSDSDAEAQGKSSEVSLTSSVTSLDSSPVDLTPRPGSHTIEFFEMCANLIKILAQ
Sequence of AMPK A1/B1/G1 (Q9Y478 whole entry partner): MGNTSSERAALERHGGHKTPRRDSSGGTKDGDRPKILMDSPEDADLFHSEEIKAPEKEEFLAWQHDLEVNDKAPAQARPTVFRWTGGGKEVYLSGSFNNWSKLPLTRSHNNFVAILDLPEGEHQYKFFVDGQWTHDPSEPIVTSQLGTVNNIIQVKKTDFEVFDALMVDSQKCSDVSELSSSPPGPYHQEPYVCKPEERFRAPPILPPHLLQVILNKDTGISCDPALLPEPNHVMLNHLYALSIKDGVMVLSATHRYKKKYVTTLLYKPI
Sequence of AMPK A1/B1/G1 (P54619 whole entry partner): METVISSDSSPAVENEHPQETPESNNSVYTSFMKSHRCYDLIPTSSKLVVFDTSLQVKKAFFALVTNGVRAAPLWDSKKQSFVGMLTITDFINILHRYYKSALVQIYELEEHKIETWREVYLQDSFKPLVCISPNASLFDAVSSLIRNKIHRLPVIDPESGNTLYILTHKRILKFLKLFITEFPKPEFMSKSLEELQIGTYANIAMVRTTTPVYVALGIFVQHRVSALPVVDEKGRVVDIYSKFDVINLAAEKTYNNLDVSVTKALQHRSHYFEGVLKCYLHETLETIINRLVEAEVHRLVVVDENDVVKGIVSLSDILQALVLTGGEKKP

P450 2C8 = P450 2C8 (Homo sapiens, UniProt P10632); assay: SelectScreen P450 Vivid biochemical assay; details: 10000nM; substrate DBOMF

Sequence of DDR1 (Q08345 19-913): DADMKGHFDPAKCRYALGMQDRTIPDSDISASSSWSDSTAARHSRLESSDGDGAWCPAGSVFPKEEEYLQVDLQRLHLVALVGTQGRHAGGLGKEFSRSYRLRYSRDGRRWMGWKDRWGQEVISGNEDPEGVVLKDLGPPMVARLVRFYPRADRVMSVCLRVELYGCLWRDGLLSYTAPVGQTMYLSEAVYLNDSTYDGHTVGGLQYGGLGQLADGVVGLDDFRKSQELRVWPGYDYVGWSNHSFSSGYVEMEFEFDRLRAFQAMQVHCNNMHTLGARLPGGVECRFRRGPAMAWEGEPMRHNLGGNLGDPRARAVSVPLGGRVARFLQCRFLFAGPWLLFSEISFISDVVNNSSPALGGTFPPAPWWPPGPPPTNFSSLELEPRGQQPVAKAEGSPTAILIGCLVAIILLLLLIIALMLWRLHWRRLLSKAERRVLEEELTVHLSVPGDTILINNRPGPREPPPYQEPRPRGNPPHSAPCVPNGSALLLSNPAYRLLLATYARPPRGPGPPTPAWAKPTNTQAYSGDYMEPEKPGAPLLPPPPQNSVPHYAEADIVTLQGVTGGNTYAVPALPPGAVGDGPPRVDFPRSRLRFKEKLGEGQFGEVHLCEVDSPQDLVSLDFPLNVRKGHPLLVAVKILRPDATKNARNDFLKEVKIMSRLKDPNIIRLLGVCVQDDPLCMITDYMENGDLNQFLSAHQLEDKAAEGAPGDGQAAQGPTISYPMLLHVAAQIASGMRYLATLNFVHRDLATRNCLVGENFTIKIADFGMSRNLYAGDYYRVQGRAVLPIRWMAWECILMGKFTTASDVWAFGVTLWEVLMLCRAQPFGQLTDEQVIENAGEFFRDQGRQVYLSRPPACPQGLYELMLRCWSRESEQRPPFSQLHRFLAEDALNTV
Sequence of LIMK2 (P53671 whole entry): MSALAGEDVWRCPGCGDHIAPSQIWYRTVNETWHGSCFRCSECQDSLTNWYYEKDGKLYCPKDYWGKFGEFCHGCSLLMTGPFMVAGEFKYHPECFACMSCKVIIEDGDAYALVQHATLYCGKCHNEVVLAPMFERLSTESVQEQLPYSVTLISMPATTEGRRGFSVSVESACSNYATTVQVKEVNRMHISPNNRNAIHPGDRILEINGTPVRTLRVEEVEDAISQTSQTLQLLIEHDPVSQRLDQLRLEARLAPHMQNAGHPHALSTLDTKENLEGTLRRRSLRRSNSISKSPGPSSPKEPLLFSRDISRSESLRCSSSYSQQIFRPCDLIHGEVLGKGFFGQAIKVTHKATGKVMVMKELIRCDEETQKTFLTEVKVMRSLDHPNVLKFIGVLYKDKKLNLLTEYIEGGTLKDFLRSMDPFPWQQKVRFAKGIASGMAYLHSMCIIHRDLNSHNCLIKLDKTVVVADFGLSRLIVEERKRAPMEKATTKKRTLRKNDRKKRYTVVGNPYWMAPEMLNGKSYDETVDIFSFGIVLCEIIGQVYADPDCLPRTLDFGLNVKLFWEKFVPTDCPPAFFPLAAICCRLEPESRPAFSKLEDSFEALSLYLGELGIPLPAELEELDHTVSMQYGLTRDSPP

**Q.** With `O=C(c1ccc(/C=C/c2n[nH]c3ccccc23)cc1)N1CCNCC1` [KW-2449] as the compound, how does the inhibition at 10 µM (FGFR3) read?
**A.** Its inhibition at 10 µM is 97%.

**Q.** And the inhibition at 10 µM (MAPKAPK5 (PRAK))?
**A.** Its inhibition at 10 µM is 87%.

**Q.** What about the inhibition at 10 µM (LIMK2) of the same compound?
**A.** Its inhibition at 10 µM is 24%.

**Q.** And the inhibition at 10 µM (DDR1)?
**A.** The inhibition at 10 µM was 55%.

**Q.** What about the inhibition at 10 µM (RPS6KB2 (p70S6Kb)) of the same compound?
**A.** Its inhibition at 10 µM is 37%.

**Q.** What about the inhibition at 10 µM (PIK3C2B (PI3K-C2 beta)) of the same compound?
**A.** Its inhibition at 10 µM is 9%.

**Q.** What about the inhibition at 10 µM (RIPK2) of the same compound?
**A.** Its inhibition at 10 µM is 77%.

**Q.** What about the inhibition at 10 µM (PRKCB2 (PKC beta II)) of the same compound?
**A.** Its inhibition at 10 µM is 71%.

**Q.** And the inhibition at 10 µM (RPS6KA5 (MSK1))?
**A.** Its inhibition at 10 µM is 49%.

**Q.** And the inhibition at 10 µM (NEK9)?
**A.** Its inhibition at 10 µM is 70%.

**Q.** What about the inhibition at 10 µM (PAK4) of the same compound?
**A.** Its inhibition at 10 µM is 94%.

**Q.** What about the inhibition at 10 µM (CDK11/cyclin C) of the same compound?
**A.** The inhibition at 10 µM was 53%.

**Q.** What about the inhibition at 10 µM (NTRK2 (TRKB)) of the same compound?
**A.** The inhibition at 10 µM was 99%.

**Q.** And the inhibition at 10 µM (MST4)?
**A.** The inhibition at 10 µM was 92%.

**Q.** What about the inhibition at 10 µM (CAMK2B (CaMKII beta)) of the same compound?
**A.** Its inhibition at 10 µM is 32%.

**Q.** What about the inhibition at 10 µM (DAPK2) of the same compound?
**A.** Its inhibition at 10 µM is 64%.

**Q.** What about the inhibition at 10 µM (KIT T670E) of the same compound?
**A.** Its inhibition at 10 µM is 89%.

**Q.** What about the inhibition at 10 µM (KIT) of the same compound?
**A.** The inhibition at 10 µM was 91%.

**Q.** What about the inhibition at 10 µM (FYN) of the same compound?
**A.** Its inhibition at 10 µM is 94%.

**Q.** And the inhibition at 10 µM (RPS6KA1 (RSK1))?
**A.** Its inhibition at 10 µM is 94%.

**Q.** What about the inhibition at 10 µM (PI4KB (PI4K beta)) of the same compound?
**A.** The inhibition at 10 µM was 10%.

**Q.** And the inhibition at 10 µM (SIK3)?
**A.** Its inhibition at 10 µM is -1%.

**Q.** And the inhibition at 10 µM (MYO3A (MYO3 alpha))?
**A.** The inhibition at 10 µM was 59%.

**Q.** What about the inhibition at 10 µM (CLK3) of the same compound?
**A.** Its inhibition at 10 µM is 66%.

**Q.** What about the inhibition at 10 µM (ALK T1151_L1152insT) of the same compound?
**A.** The inhibition at 10 µM was 26%.

**Q.** And the inhibition at 10 µM (ITK)?
**A.** The inhibition at 10 µM was 99%.

**Q.** What about the inhibition at 10 µM (PHKG2) of the same compound?
**A.** The inhibition at 10 µM was 99%.

**Q.** And the inhibition at 10 µM (GRK7)?
**A.** The inhibition at 10 µM was 41%.

**Q.** And the inhibition at 10 µM (ALK C1156Y)?
**A.** The inhibition at 10 µM was 76%.

**Q.** And the inhibition at 10 µM (LRRK2 G2019S FL)?
**A.** Its inhibition at 10 µM is 100%.

**Q.** And the inhibition at 10 µM (LATS1)?
**A.** Its inhibition at 10 µM is -17%.

**Q.** What about the inhibition at 10 µM (PIK3C2G (PI3K-C2 gamma)) of the same compound?
**A.** Its inhibition at 10 µM is 2%.

**Q.** And the inhibition at 10 µM (CAMKK2 (CaMKK beta))?
**A.** Its inhibition at 10 µM is 86%.

**Q.** And the inhibition at 10 µM (PRKACB (PRKAC beta))?
**A.** The inhibition at 10 µM was 48%.

**Q.** And the inhibition at 10 µM (MAP3K9 (MLK1))?
**A.** Its inhibition at 10 µM is 102%.

**Q.** What about the inhibition at 10 µM (PLK3) of the same compound?
**A.** Its inhibition at 10 µM is -10%.

**Q.** And the inhibition at 10 µM (DAPK1)?
**A.** Its inhibition at 10 µM is 90%.

**Q.** And the inhibition at 10 µM (AMPK A1/B1/G1)?
**A.** Its inhibition at 10 µM is 97%.

**Q.** And the “% Inhibition 2C8 DBOMF” value (P450 2C8)?
**A.** Its value is 33%.
